In patent US7829332B2, “Purines are self-renewal signals for neural stem cells, and purine receptor antagonists promote neuronal and glial differentiation therefrom” (Cornell Research Foundation, Inc., priority 2004, dated 2010):

Key:
Format in all cases: cell-based, mouse
[1] = test system: neural progenitor cells; assay: Calcium imaging (fluo-4/am) of Ca2+i responses in 1-2 day cultures; conditions: for increase of Ca2+i by purine receptor agonists: 1-2 day cultures; for effect of removal of extracellular Ca2+ on the Ca2+ response to the agonist: extracellular Ca2+ removed
Description: Neuronal cultures were prepared from E16 mice and maintained as earlier described (Nedergaard, M., Science 263:1768-1771 (1994), which is hereby incorporated by reference in its entirety). Cytosine arabinoside (20 μM) was added at 48 hr to eliminate proliferating cells. Neural progenitor cells were isolated from E13 mice as previously described (Morshead et al., Neuron 13:1071-82 (1994); Reynolds et al., Science 255:1707-10 (1992), which are hereby incorporated by reference in their entirety). The forebrains were collected in a Ca/Mg-free Hank's buffered saline solution (HBSS) and dissociated in 0.25% trypsin. The cells were resuspended at 4×10^6 cells/ml in DMEM/F12/N2 containing 10 ng/ml bFGF and 10 ng/ml EGF (Sigma, St. Louis, Mo.). The cells were plated at 4 ml/dish into 100 mm suspension culture plates and incubated at 37° C. in 5% CO2. The cells were passaged 2 to 3 times before use.
To test the idea that purinergic signaling is restricted to undifferentiated neural precursor cells, Ca^2+ responses to ATP were first examined as a function of time after plating either neural stem cells or differentiated neurons. Cultured mouse cortical neurons in near-pure neuronal cultures were loaded with fluo-4/am and exposed to either ATP (100 μM) or K^+ (60 mM). […] The responses to ATP fell by day 3 and were absent 9 days after plating. […] By 30 hours after plating, MAP2-defined neurons expressed substantially less P2Y receptor-immunoreactivity than did neighboring, MAP2^− cells (FIG. 1C). By 5 days, P2Y-immunoreactivity was restricted to GFAP^+ astrocytes.
ATP-induced Ca^2+i increments were inhibited by both suramin (100 μM) and reactive blue (RB; 30 μM), two mechanistically-unrelated inhibitors of purinergic signaling (FIG. 1D).

[2] = test system: neural stem cells; assay: BrdU incorporation assay (mitotic index); conditions: 4 hrs incubation
Description: For the BrdU incorporation assay, the cultures were incubated for 4 hrs in BrdU (Sigma, 10 μg/ml, 4 hrs), fixed and stained with rat monoclonal anti-BrdU (MAS250C, Harlan Sera-lab, Loughborough, UK; 1:200) and Cy3-conjugated goat anti-rat antibodies (Jackson ImmunoResearch, 1:300). Nuclei were visualized by Sytox (Molecular Probes, Inc.), and the mitotic index was calculated as the ratio of BrdU/Sytox positive nuclei. Limiting dilution analysis was performed as previously described (Keyoung et al., Nature Biotechnology 19:843-850 (2001); Uchida et al., Proc. Natl. Acad. Sci. 97:14720-14725 (2000), which are hereby incorporated by reference in their entirety).
Purinergic signaling has long-term effects on proliferation of numerous cell types, including rapidly replicating transformed cell lines (Burnstock, G., Arterioscler Thromb Vasc Biol 22:364-73 (2002); Michoud et al., Am J Respir Cell Mol Biol 27:732-8 (2002); Sauer et al., J Cell Sci 115:3265-73 (2002); Tu et al., Br J Pharmacol 129:1481-9 (2000), which are hereby incorporated by reference in their entirety). To better define the mitogenic effects of P2Y on neural progenitor cells, the mitogenic effects of ATP, its analogs, and its dephosphorylated metabolites were compared. To this end, BrdU incorporation by neural stem cells was quantified after 4 hrs incubation in each treatment.

[3] = test system: neuroepithelial cells / neural spheres; assay: ATP release, luciferin-luciferase bioluminescence
Description: ATP release from living cells were dynamically imaged by chemiluminescence as described in (Arcuino et al., Proc Natl Acad Sci USA 99:9840-5 (2002), which is hereby incorporated by reference in its entirety). Neural spheres were after a light spin resuspended in Ringer's solution and mounted in a temperature controlled Leiden chamber. Luciferase (0.132 mg/ml) and luciferin (0.332 mg/ml) was added to the Ringer solution. After obtaining a baseline recording of 5 minutes duration, the cultures were stimulated by adding an equal volume of Ca^2+-free Ringer solution containing 100 μM UTP. Light production from the luciferin-luciferase reaction was imaged by a liquid nitrogen-cooled CCD camera (VersArray 1300B, Princeton Instruments), using a 20× oil lens (N.A. 0.8, Olympus), 8×8 binning, and two seconds integration. ATP content in samples collected from cultures grown in 24-well tissue culture plates was measured using a Victor2 plate reader (Wallac) (Cotrina et al., Proc. Natl. Acad. Sci. 95:15735-15740 (1998), which is hereby incorporated by reference in its entirety) and normalized to the protein content (BioRad) or to the cell number. A minimum of 8 independent experiments was evaluated (n≧8, most >20). When drugs or serum were used, the standards were adjusted to containing an equivalent amount. […]

Molecule	increase of Ca2+i by purine receptor agonists [1]	proliferation (BrdU incorporation) [2]	further results
Nc1nc(Cl)nc2c1ncn2[C@@H]1O[C@H](COP(=O)(O)OP(=O)(O)OP(=O)(O)O)[C@@H](O)[C@H]1O [2-Cl-ATP, 2-chloro-adenosine triphosphate]	increased Ca^2+i with roughly equal potency	comparable effects	
CSc1nc(N)c2ncn([C@@H]3O[C@H](COP(=O)(O)OP(=O)(O)OP(=O)(O)O)[C@@H](O)[C@H]3O)c2n1 [2-MeSATP, 2-methylthio-adenosine triphosphate]	increased Ca^2+i with roughly equal potency		effect of removal of extracellular Ca2+ on the Ca2+ response to the agonist [1]: did not significantly decrease
Nc1ncnc2c1ncn2[C@@H]1O[C@H](COP(=O)(O)OP(=O)(O)O)[C@@H](O)[C@H]1O [ADP, adenosine diphosphate]	increased Ca^2+i with roughly equal potency	comparable effects	
Nc1ncnc2c1ncn2[C@@H]1O[C@H](COP(=O)(O)CP(=O)(O)O)[C@@H](O)[C@H]1O [AMPCP, α,β-methyl adenosine diphosphate]		potently enhanced	
Nc1ncnc2c1ncn2[C@@H]1O[C@H](COP(=O)(O)OP(=O)(O)OP(=O)(O)O)[C@@H](O)[C@H]1O [ATP, adenosine triphosphate]	increased Ca^2+i with roughly equal potency	increased proliferation in a dose-dependent manner	Ca2+ response ([1]; 100 μM, cultures younger than 2 days in vitro): Transient increments in Ca^2+ were triggered; effect of removal of extracellular Ca2+ on the Ca2+ response to the agonist [1]: did not significantly decrease; concentration at which proliferation peaked [2]: 100 µM
CCNC(=O)[C@H]1O[C@@H](n2cnc3c(N)ncnc32)[C@H](O)[C@@H]1O [NECA]		failed to stimulate proliferation	
O=c1ccn([C@@H]2O[C@H](COP(=O)(O)OP(=O)(O)OP(=O)(O)O)[C@@H](O)[C@H]2O)c(=O)[nH]1 [UTP, uridine triphosphate]	increased Ca^2+i with roughly equal potency	comparable effects	ATP release from neural spheres, bioluminescence imaging ([3]; 100 μM, neural spheres): frequent point-source bursts of light emission; ATP release evoked by purine receptor activation ([3]; neuroepithelial cells, first 2 days in vitro): evoked robust ATP release
Nc1ncnc2c1ncn2[C@@H]1O[C@H](CO)[C@@H](O)[C@H]1O [adenosine]		failed to stimulate proliferation	
Nc1ncnc2c1ncn2[C@@H](C=O)O[C@@H](C=O)COP(=O)(O)OP(=O)(O)OP(=O)(O)O [oxidized ATP, periodate oxidized adenosine 5′-triphosphate]			reduction of ATP-evoked Ca2+ responses ([1]; 300 μM, 1 hr, p=0.4, Student's t test): did not significantly reduce
Nc1ncnc2c1ncn2[C@@H]1O[C@H](COP(=O)(O)CP(=O)(O)OP(=O)(O)O)[C@@H](O)[C@H]1O [αβATP]	failed to evoke Ca^2+ responses		
Nc1ncnc2c1ncn2[C@@H]1O[C@H](COP(=O)(O)OP(=O)(O)OP(O)(O)=S)[C@@H](O)[C@H]1O [γSATP, γ-thio-adenosine triphosphate]	increased Ca^2+i with roughly equal potency	comparable effects	
apyrase		inhibited proliferation	
